Values quoted from earlier work in patent US20150335678A1, “METHOD OF ACTIVATING STEM CELLS IN AN ANIMAL AND THE USE OF CHLORINE DIOXIDE FOR PREPARING MEDICINES FOR ACTIVATING STEM CELLS IN AN ANIMAL” (priority 2012, published 2015).
Where two headings read alike, the source gives them in different places.

Legend:
rat = settings: cited from earlier work
mouse = mouse per os; cited from earlier work

[Na+].[O-][Cl+][O-] [NaClO2]
accumulative toxicity classification of aqueous solution (rat; rat, in vivo): non-obvious accumulative toxic | toxicity classification of aqueous solution (rat; rat, in vivo): actually non-toxic

[Na+].[O-][Cl+2]([O-])[O-] [NaClO3]
accumulative toxicity classification of aqueous solution (rat; ClO2 276.5 mg/L, NaClO2 200 mg/L, NaClO3): non-obvious accumulative toxic | toxicity classification of aqueous solution (rat; ClO2 276.5 mg/L, NaClO2 and NaClO3 200 mg/L, ClO2 mixed solution total concentration 553 mg/L): actually non-toxic

stable chlorine dioxide
LD50 (mouse): > 10000 mg/kg
